Experimental data: patent US9708314B2, “Heterocyclic amide compound” (NISSAN CHEMICAL INDUSTRIES, LTD., priority 2013, dated 2017)

What was measured:
Type in all cases: in vivo
[1] = tested on: Echinochloa oryzacola Vasing.; experiment: Test Example 2: herbicidal activity, application during weed generation in submerged conditions; details: Eighteenth Table; application herbicide amount 320 g/ha
Procedure, shortened: (§1)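 Seeds were sown together in alluvial soil kept under 4 cm of water and grown at 25 °C to 30 °C. Once plants reached the one- to two-leaf stage, the diluted emulsion was applied to the water surface at a predetermined g/ha amount, and effects were rated 0–5 after three weeks.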

Monochoria vaginalis = experiment: as above; details: Eighteenth Table; application herbicide amount 320 g/ha
Procedure, shortened: as §1

Scirpus juncoides = experiment: as above; details: Eighteenth Table; application herbicide amount 320 g/ha
Procedure, shortened: as §1

Cyperus difformis = experiment: Test Example 3: herbicidal effect by application to foliage (Wagner pot, water depth 0.1-0.5 cm); details: Nineteenth Table; application herbicide amount 320 g/ha
Procedure, shortened: (§2)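 Visual 0–5 rating of herbicidal ratio, taken 3 weeks after foliar spray of a diluted emulsion formulation at rates expressed as g/ha. Plants had been sown in alluvial soil under 0.1–0.5 cm water and grown 14 days at 25–30 °C under glass before application.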

[2] = tested on: Echinochloa crus-galli var. crus-galli; experiment: as above; details: Nineteenth Table; application herbicide amount 320 g/ha
Procedure, shortened: as §2

Leptochloa chinensis = experiment: as above; details: Nineteenth Table; application herbicide amount 320 g/ha
Procedure, shortened: as §2

[3] = tested on: directly sowed Oryza sativa; experiment: Test Example 3: effect on crop by application to foliage (Wagner pot, water depth 0.1-0.5 cm); details: Nineteenth Table; application herbicide amount 320 g/ha
Procedure, shortened: as §2

Triticum aestivum = experiment: Test Example 4: effect on crop by application to foliage (diluvial soil, plastic box); details: application to foliage, application herbicide amount 320 g/ha
Procedure, shortened: (§3)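 Greenhouse plants (25° C. to 30° C., 14 d, diluvial soil) receive a foliar spray of water-diluted emulsifiable formulation at defined g/ha. Grading after 3 weeks uses a six-step herbicidal-ratio scale, with 4 covering 70% to <90% and 1 covering 5% to <20%.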

Zea mays = experiment: as above; details: application to foliage, application herbicide amount 320 g/ha
Procedure, shortened: as §3

## Cc1nnc(NC(=O)c2ccc(C(F)(F)F)n3c(C4CCCC4)nnc23)o1 [1-026]
[1]
  A (Echinochloa oryzicola Vasing.) herbicidal ratio grade: 3 (Herbicidal ratio of 40% or more and less than 70%)
Monochoria vaginalis
  C (Monochoria vaginalis) herbicidal ratio grade: 0 (Herbicidal ratio of 5% or less (almost no effect))
Scirpus juncoides
  B (Scirpus juncoides) herbicidal ratio grade: 1 (Herbicidal ratio of 5% or more and less than 20%)
Cyperus difformis
  E (Cyperus difformis) herbicidal ratio grade: 4 (Herbicidal ratio of 70% or more and less than 90%)
[2]
  H (Echinochloa crus-galli var. crus-galli) herbicidal ratio grade: 5 (Herbicidal ratio of 90% or more (almost completely withered))
Leptochloa chinensis
  D (Leptochloa chinensis) herbicidal ratio grade: 4 (Herbicidal ratio of 70% or more and less than 90%)
[3]
  b (directly sowed Oryza sativa) effect on crop grade: 4 (Herbicidal ratio of 70% or more and less than 90%)
Triticum aestivum
  e (Triticum aestivum) effect on crop: 1 (Herbicidal ratio of 5% or more and less than 20%)
Zea mays
  b (Zea mays) effect on crop: 0 (Herbicidal ratio of 5% or less (almost no effect))

## CCOCc1nnc2c(C(=O)Nc3nnc(C)o3)ccc(C(F)(F)F)n12 [1-027]
[1]
  A (Echinochloa oryzicola Vasing.) herbicidal ratio grade: 4 (Herbicidal ratio of 70% or more and less than 90%)
Monochoria vaginalis
  C (Monochoria vaginalis) herbicidal ratio grade: 3 (Herbicidal ratio of 40% or more and less than 70%)
Scirpus juncoides
  B (Scirpus juncoides) herbicidal ratio grade: 3 (Herbicidal ratio of 40% or more and less than 70%)
Cyperus difformis
  E (Cyperus difformis) herbicidal ratio grade: 5 (Herbicidal ratio of 90% or more (almost completely withered))
[2]
  H (Echinochloa crus-galli var. crus-galli) herbicidal ratio grade: 5 (Herbicidal ratio of 90% or more (almost completely withered))
Leptochloa chinensis
  D (Leptochloa chinensis) herbicidal ratio grade: 5 (Herbicidal ratio of 90% or more (almost completely withered))
[3]
  b (directly sowed Oryza sativa) effect on crop grade: 3 (Herbicidal ratio of 40% or more and less than 70%)
Triticum aestivum
  e (Triticum aestivum) effect on crop: 2 (Herbicidal ratio of 20% or more and less than 40%)
Zea mays
  b (Zea mays) effect on crop: 0 (Herbicidal ratio of 5% or less (almost no effect))

## Cc1nnc(NC(=O)c2ccc(C(F)(F)F)n3c(C4=NOC(C)(C)C4)nnc23)o1 [1-029]
[1]
  A (Echinochloa oryzicola Vasing.) herbicidal ratio grade: 3 (Herbicidal ratio of 40% or more and less than 70%)
Monochoria vaginalis
  C (Monochoria vaginalis) herbicidal ratio grade: 3 (Herbicidal ratio of 40% or more and less than 70%)
Scirpus juncoides
  B (Scirpus juncoides) herbicidal ratio grade: 2 (Herbicidal ratio of 20% or more and less than 40%)
Cyperus difformis
  E (Cyperus difformis) herbicidal ratio grade: 4 (Herbicidal ratio of 70% or more and less than 90%)
[2]
  H (Echinochloa crus-galli var. crus-galli) herbicidal ratio grade: 4 (Herbicidal ratio of 70% or more and less than 90%)
Leptochloa chinensis
  D (Leptochloa chinensis) herbicidal ratio grade: 5 (Herbicidal ratio of 90% or more (almost completely withered))
[3]
  b (directly sowed Oryza sativa) effect on crop grade: 4 (Herbicidal ratio of 70% or more and less than 90%)
Triticum aestivum
  e (Triticum aestivum) effect on crop: 1 (Herbicidal ratio of 5% or more and less than 20%)
Zea mays
  b (Zea mays) effect on crop: 3 (Herbicidal ratio of 40% or more and less than 70%)

## CSCc1nnc2c(C(=O)Nc3nnc(C)o3)ccc(C(F)(F)F)n12 [1-030]
[1]
  A (Echinochloa oryzicola Vasing.) herbicidal ratio grade: 4 (Herbicidal ratio of 70% or more and less than 90%)
Monochoria vaginalis
  C (Monochoria vaginalis) herbicidal ratio grade: 3 (Herbicidal ratio of 40% or more and less than 70%)
Scirpus juncoides
  B (Scirpus juncoides) herbicidal ratio grade: 3 (Herbicidal ratio of 40% or more and less than 70%)
Cyperus difformis
  E (Cyperus difformis) herbicidal ratio grade: 5 (Herbicidal ratio of 90% or more (almost completely withered))
[2]
  H (Echinochloa crus-galli var. crus-galli) herbicidal ratio grade: 5 (Herbicidal ratio of 90% or more (almost completely withered))
Leptochloa chinensis
  D (Leptochloa chinensis) herbicidal ratio grade: 5 (Herbicidal ratio of 90% or more (almost completely withered))
[3]
  b (directly sowed Oryza sativa) effect on crop grade: 4 (Herbicidal ratio of 70% or more and less than 90%)
Triticum aestivum
  e (Triticum aestivum) effect on crop: 3 (Herbicidal ratio of 40% or more and less than 70%)
Zea mays
  b (Zea mays) effect on crop: 3 (Herbicidal ratio of 40% or more and less than 70%)

## Cc1nnc(NC(=O)c2ccc(C(F)(F)F)n3c(CSCC(F)(F)F)nnc23)o1 [1-031]
[1]
  A (Echinochloa oryzicola Vasing.) herbicidal ratio grade: 3 (Herbicidal ratio of 40% or more and less than 70%)
Monochoria vaginalis
  C (Monochoria vaginalis) herbicidal ratio grade: 2 (Herbicidal ratio of 20% or more and less than 40%)
Scirpus juncoides
  B (Scirpus juncoides) herbicidal ratio grade: 2 (Herbicidal ratio of 20% or more and less than 40%)
Cyperus difformis
  E (Cyperus difformis) herbicidal ratio grade: 3 (Herbicidal ratio of 40% or more and less than 70%)
[2]
  H (Echinochloa crus-galli var. crus-galli) herbicidal ratio grade: 5 (Herbicidal ratio of 90% or more (almost completely withered))
Leptochloa chinensis
  D (Leptochloa chinensis) herbicidal ratio grade: 4 (Herbicidal ratio of 70% or more and less than 90%)
[3]
  b (directly sowed Oryza sativa) effect on crop grade: 2 (Herbicidal ratio of 20% or more and less than 40%)
Triticum aestivum
  e (Triticum aestivum) effect on crop: 1 (Herbicidal ratio of 5% or more and less than 20%)
Zea mays
  b (Zea mays) effect on crop: 0 (Herbicidal ratio of 5% or less (almost no effect))

## CCSc1nnc2c(C(=O)Nc3nnc(C)o3)ccc(C(F)(F)F)n12 [1-032]
[1]
  A (Echinochloa oryzicola Vasing.) herbicidal ratio grade: 4 (Herbicidal ratio of 70% or more and less than 90%)
Monochoria vaginalis
  C (Monochoria vaginalis) herbicidal ratio grade: 3 (Herbicidal ratio of 40% or more and less than 70%)
Scirpus juncoides
  B (Scirpus juncoides) herbicidal ratio grade: 3 (Herbicidal ratio of 40% or more and less than 70%)
Cyperus difformis
  E (Cyperus difformis) herbicidal ratio grade: 5 (Herbicidal ratio of 90% or more (almost completely withered))
[2]
  H (Echinochloa crus-galli var. crus-galli) herbicidal ratio grade: 5 (Herbicidal ratio of 90% or more (almost completely withered))
Leptochloa chinensis
  D (Leptochloa chinensis) herbicidal ratio grade: 5 (Herbicidal ratio of 90% or more (almost completely withered))
[3]
  b (directly sowed Oryza sativa) effect on crop grade: 2 (Herbicidal ratio of 20% or more and less than 40%)
Triticum aestivum
  e (Triticum aestivum) effect on crop: 1 (Herbicidal ratio of 5% or more and less than 20%)
Zea mays
  b (Zea mays) effect on crop: 0 (Herbicidal ratio of 5% or less (almost no effect))

## Cc1nnc(NC(=O)c2ccc(C(F)(F)F)n3c(SC(C)C)nnc23)o1 [1-033]
[1]
  A (Echinochloa oryzicola Vasing.) herbicidal ratio grade: 4 (Herbicidal ratio of 70% or more and less than 90%)
Monochoria vaginalis
  C (Monochoria vaginalis) herbicidal ratio grade: 3 (Herbicidal ratio of 40% or more and less than 70%)
Scirpus juncoides
  B (Scirpus juncoides) herbicidal ratio grade: 4 (Herbicidal ratio of 70% or more and less than 90%)
Cyperus difformis
  E (Cyperus difformis) herbicidal ratio grade: 5 (Herbicidal ratio of 90% or more (almost completely withered))
[2]
  H (Echinochloa crus-galli var. crus-galli) herbicidal ratio grade: 5 (Herbicidal ratio of 90% or more (almost completely withered))
Leptochloa chinensis
  D (Leptochloa chinensis) herbicidal ratio grade: 5 (Herbicidal ratio of 90% or more (almost completely withered))
[3]
  b (directly sowed Oryza sativa) effect on crop grade: 1 (Herbicidal ratio of 5% or more and less than 20%)
Triticum aestivum
  e (Triticum aestivum) effect on crop: 1 (Herbicidal ratio of 5% or more and less than 20%)
Zea mays
  b (Zea mays) effect on crop: 0 (Herbicidal ratio of 5% or less (almost no effect))

## CC[S+]([O-])c1nnc2c(C(=O)Nc3nnc(C)o3)ccc(C(F)(F)F)n12 (stereo not drawn) [1-034]
[1]
  A (Echinochloa oryzicola Vasing.) herbicidal ratio grade: 4 (Herbicidal ratio of 70% or more and less than 90%)
Monochoria vaginalis
  C (Monochoria vaginalis) herbicidal ratio grade: 4 (Herbicidal ratio of 70% or more and less than 90%)
Scirpus juncoides
  B (Scirpus juncoides) herbicidal ratio grade: 3 (Herbicidal ratio of 40% or more and less than 70%)
Cyperus difformis
  E (Cyperus difformis) herbicidal ratio grade: 5 (Herbicidal ratio of 90% or more (almost completely withered))
[2]
  H (Echinochloa crus-galli var. crus-galli) herbicidal ratio grade: 5 (Herbicidal ratio of 90% or more (almost completely withered))
Leptochloa chinensis
  D (Leptochloa chinensis) herbicidal ratio grade: 5 (Herbicidal ratio of 90% or more (almost completely withered))
[3]
  b (directly sowed Oryza sativa) effect on crop grade: 5 (Herbicidal ratio of 90% or more (almost completely withered))
Triticum aestivum
  e (Triticum aestivum) effect on crop: 2 (Herbicidal ratio of 20% or more and less than 40%)
Zea mays
  b (Zea mays) effect on crop: 5 (Herbicidal ratio of 90% or more (almost completely withered))

## Cc1nnc(NC(=O)c2ccc(C(F)(F)F)n3c([S+]([O-])C(C)C)nnc23)o1 (stereo not drawn) [1-035]
[1]
  A (Echinochloa oryzicola Vasing.) herbicidal ratio grade: 5 (Herbicidal ratio of 90% or more (almost completely withered))
Monochoria vaginalis
  C (Monochoria vaginalis) herbicidal ratio grade: 4 (Herbicidal ratio of 70% or more and less than 90%)
Scirpus juncoides
  B (Scirpus juncoides) herbicidal ratio grade: 4 (Herbicidal ratio of 70% or more and less than 90%)
Cyperus difformis
  E (Cyperus difformis) herbicidal ratio grade: 5 (Herbicidal ratio of 90% or more (almost completely withered))
[2]
  H (Echinochloa crus-galli var. crus-galli) herbicidal ratio grade: 5 (Herbicidal ratio of 90% or more (almost completely withered))
Leptochloa chinensis
  D (Leptochloa chinensis) herbicidal ratio grade: 5 (Herbicidal ratio of 90% or more (almost completely withered))
[3]
  b (directly sowed Oryza sativa) effect on crop grade: 4 (Herbicidal ratio of 70% or more and less than 90%)
Triticum aestivum
  e (Triticum aestivum) effect on crop: 2 (Herbicidal ratio of 20% or more and less than 40%)
Zea mays
  b (Zea mays) effect on crop: 4 (Herbicidal ratio of 70% or more and less than 90%)

## Cc1nnc(NC(=O)c2ccc(C(F)(F)F)n3c(C[S+](C)[O-])nnc23)o1 (stereo not drawn) [1-036]
[1]
  A (Echinochloa oryzicola Vasing.) herbicidal ratio grade: 3 (Herbicidal ratio of 40% or more and less than 70%)
Monochoria vaginalis
  C (Monochoria vaginalis) herbicidal ratio grade: 4 (Herbicidal ratio of 70% or more and less than 90%)
Scirpus juncoides
  B (Scirpus juncoides) herbicidal ratio grade: 2 (Herbicidal ratio of 20% or more and less than 40%)
Cyperus difformis
  E (Cyperus difformis) herbicidal ratio grade: 5 (Herbicidal ratio of 90% or more (almost completely withered))
[2]
  H (Echinochloa crus-galli var. crus-galli) herbicidal ratio grade: 5 (Herbicidal ratio of 90% or more (almost completely withered))
Leptochloa chinensis
  D (Leptochloa chinensis) herbicidal ratio grade: 5 (Herbicidal ratio of 90% or more (almost completely withered))
[3]
  b (directly sowed Oryza sativa) effect on crop grade: 4 (Herbicidal ratio of 70% or more and less than 90%)
Triticum aestivum
  e (Triticum aestivum) effect on crop: 3 (Herbicidal ratio of 40% or more and less than 70%)
Zea mays
  b (Zea mays) effect on crop: 3 (Herbicidal ratio of 40% or more and less than 70%)
